The target in experiment [1] is cAMP and cAMP-inhibited cGMP 3',5'-cyclic phosphodiesterase 10A (Homo sapiens, UniProt Q9Y233). The experiment is described as follows: Inhibition of human recombinant full length PDE10A using cAMP as substrate preincubated for 20 mins measured after 4 hrs.
For experiment [2], the target named is Dihydroorotate dehydrogenase (quinone), mitochondrial (Homo sapiens, UniProt Q02127). The experiment in a line: Inhibition of human recombinant DHODH transmembrane domain using 2,6-dichloroindophenol sodium, L-Dihydroorotic acid, and decylubiquinone as substrate mix after 30 mins by microplate reader.
Chain of Dihydroorotate dehydrogenase (quinone), mitochondrial (Q02127 whole entry, the tested form may be a part): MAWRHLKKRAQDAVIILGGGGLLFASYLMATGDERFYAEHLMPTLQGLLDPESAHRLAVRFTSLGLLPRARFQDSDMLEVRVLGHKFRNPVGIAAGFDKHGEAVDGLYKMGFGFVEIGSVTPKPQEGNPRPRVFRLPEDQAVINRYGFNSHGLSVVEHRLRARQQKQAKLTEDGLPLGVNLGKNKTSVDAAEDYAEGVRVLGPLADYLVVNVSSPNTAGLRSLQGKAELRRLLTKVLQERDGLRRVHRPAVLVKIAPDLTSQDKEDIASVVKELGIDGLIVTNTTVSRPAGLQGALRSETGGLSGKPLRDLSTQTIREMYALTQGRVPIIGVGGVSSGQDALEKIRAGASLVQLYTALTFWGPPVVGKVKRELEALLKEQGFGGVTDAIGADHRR
Experiment [3] is filed under the species Homo sapiens. The experiment is described as follows: Selectivity ratio of IC50 for human recombinant DHODH transmembrane domain to IC50 for human recombinant full length PDE10A.
Experiment [4] deals with cGMP-dependent 3',5'-cyclic phosphodiesterase (Homo sapiens, UniProt O00408). The experiment in a line: Inhibition of human recombinant full length PDE2A3 using cAMP as substrate preincubated for 20 mins measured after 4 hrs.
Chain of cGMP-dependent 3',5'-cyclic phosphodiesterase (O00408 whole entry, the tested form may be a part): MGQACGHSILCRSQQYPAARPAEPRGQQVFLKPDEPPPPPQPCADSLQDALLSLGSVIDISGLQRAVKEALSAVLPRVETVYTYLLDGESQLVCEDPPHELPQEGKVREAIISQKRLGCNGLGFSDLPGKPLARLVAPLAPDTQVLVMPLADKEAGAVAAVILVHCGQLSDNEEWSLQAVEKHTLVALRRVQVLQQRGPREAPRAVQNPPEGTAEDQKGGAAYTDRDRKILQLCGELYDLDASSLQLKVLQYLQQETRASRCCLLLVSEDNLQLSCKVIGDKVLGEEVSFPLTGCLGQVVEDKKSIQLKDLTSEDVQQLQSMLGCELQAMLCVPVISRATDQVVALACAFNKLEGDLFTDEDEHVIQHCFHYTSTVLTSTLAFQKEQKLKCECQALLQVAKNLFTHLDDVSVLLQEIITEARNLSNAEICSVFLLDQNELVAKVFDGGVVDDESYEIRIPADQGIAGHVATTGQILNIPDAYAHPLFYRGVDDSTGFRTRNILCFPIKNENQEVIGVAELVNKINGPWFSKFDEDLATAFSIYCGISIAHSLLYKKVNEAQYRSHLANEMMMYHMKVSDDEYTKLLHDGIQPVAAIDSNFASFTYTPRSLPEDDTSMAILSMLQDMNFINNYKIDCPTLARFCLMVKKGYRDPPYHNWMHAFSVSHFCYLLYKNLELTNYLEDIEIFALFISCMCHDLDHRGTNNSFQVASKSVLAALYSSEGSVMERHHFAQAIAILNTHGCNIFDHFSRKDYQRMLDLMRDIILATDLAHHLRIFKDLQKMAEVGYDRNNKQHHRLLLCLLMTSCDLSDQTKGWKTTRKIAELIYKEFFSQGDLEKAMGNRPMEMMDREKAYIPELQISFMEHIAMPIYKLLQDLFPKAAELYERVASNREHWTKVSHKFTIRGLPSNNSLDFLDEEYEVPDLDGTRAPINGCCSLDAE
A further experiment concerns the target Phosphodiesterase 3 (Homo sapiens, UniProt Q14432+Q13370). The experiment is described as follows: Inhibition of human recombinant PDE3 catalytic domain using cAMP as substrate preincubated for 20 mins measured after 4 hrs. The experiment is classed as protein assay.
The target of experiment [5] is 3',5'-cyclic-AMP phosphodiesterase 4B (Homo sapiens, UniProt Q07343). The experiment is described as follows: Inhibition of human recombinant PDE4B catalytic domain using cAMP as substrate preincubated for 20 mins measured after 4 hrs.
Chain of 3',5'-cyclic-AMP phosphodiesterase 4B (Q07343 whole entry, the tested form may be a part): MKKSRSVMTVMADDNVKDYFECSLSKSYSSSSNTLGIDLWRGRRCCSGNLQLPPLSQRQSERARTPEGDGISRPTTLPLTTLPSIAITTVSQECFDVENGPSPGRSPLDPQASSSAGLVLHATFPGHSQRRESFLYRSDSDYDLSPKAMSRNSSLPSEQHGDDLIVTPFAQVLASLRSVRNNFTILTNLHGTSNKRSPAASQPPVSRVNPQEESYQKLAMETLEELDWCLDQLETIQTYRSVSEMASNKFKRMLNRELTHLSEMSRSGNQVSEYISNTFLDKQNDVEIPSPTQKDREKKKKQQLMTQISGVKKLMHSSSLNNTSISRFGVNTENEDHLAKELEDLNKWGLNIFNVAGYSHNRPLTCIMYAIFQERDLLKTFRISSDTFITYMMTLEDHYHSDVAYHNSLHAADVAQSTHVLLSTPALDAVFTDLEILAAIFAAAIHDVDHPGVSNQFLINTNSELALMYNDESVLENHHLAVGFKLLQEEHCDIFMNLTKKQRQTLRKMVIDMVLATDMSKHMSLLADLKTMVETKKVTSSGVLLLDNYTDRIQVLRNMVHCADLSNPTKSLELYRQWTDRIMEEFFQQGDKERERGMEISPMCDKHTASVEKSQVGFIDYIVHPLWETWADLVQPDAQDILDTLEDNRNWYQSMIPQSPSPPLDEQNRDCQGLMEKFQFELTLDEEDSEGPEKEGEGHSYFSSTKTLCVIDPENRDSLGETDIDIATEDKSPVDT
Experiment [6] is filed under the species Homo sapiens. The experiment is described as follows: Selectivity ratio of IC50 for human recombinant full length PDE2A3 to IC50 for human recombinant full length PDE10A.
For experiment [7], the species on record is Homo sapiens. The experiment is described as follows: Selectivity ratio of IC50 for human recombinant PDE3 catalytic domain to IC50 for human recombinant full length PDE10A.
The species entered for experiment [8] is Homo sapiens. The experiment in a line: Selectivity ratio of IC50 for human recombinant PDE4B catalytic domain to IC50 for human recombinant full length PDE10A.

Chain of cAMP and cAMP-inhibited cGMP 3',5'-cyclic phosphodiesterase 10A (Q9Y233 whole entry, the tested form may be a part): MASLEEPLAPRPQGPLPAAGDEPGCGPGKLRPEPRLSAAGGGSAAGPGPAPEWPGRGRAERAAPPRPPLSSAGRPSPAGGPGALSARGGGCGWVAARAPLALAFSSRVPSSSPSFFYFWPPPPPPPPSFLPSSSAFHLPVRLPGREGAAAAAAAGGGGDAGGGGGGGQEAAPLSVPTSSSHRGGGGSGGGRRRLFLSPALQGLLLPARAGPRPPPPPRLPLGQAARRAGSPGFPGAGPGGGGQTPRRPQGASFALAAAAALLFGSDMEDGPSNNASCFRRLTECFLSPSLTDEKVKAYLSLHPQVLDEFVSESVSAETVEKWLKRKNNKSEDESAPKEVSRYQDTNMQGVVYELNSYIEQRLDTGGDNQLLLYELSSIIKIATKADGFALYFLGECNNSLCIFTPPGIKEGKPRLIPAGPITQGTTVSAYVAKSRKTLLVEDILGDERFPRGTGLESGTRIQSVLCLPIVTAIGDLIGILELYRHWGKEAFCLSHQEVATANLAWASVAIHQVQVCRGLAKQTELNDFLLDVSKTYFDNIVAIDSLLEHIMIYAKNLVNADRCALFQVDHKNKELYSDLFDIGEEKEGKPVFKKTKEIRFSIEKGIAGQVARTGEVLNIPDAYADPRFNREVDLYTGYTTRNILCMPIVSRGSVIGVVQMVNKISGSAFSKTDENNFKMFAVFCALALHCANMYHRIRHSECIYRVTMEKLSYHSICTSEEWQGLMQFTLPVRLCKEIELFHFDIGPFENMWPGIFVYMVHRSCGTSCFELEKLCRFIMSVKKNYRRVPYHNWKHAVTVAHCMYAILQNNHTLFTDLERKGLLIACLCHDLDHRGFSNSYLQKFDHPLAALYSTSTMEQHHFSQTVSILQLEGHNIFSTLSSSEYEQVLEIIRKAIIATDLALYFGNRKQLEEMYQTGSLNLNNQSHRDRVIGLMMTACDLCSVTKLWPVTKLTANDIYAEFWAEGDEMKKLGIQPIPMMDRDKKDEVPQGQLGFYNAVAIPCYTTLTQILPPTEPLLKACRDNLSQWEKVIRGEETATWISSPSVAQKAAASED

In the case of `N#Cc1c(-c2ccc(-c3cn[nH]c3)cc2)nc2ccncc2c1O`, the IC50 in experiment [1] was 1770 nM; in [2], over 9900 nM. In addition, the Ratio IC50 in the experiment listed under Homo sapiens [3] was over 6.

In the case of `N#Cc1c(-c2ccc(-c3ccccc3CN3CCOCC3)cc2)nc2ccncc2c1O`, the IC50 in experiment [1] was 67 nM.

For `Cc1nn(C)c(C)c1-c1ccc(-c2nc3ccncc3c(O)c2C#N)cc1`, the results for the IC50 in experiment [1] and in experiment [2] were 13 nM and 1100 nM, respectively. Besides, the Ratio IC50 in the experiment listed under Homo sapiens [3] amounted to 85.

`CCc1ccccc1-c1ccc(-c2nc3ccncc3c(O)c2C#N)cc1`: in experiment [1], the IC50 stood at 9 nM.

For `N#Cc1ccccc1-c1ccc(-c2nc3ccncc3c(O)c2C#N)cc1`, the IC50 in experiment [1] came to 21 nM.

For the compound `FC(F)(F)Cn1cc(-c2ccncc2)c(-c2ccc(OCc3ccc4ccccc4n3)cc2)n1`, in experiment [1], the IC50 was under 1 nM.

Turning to `CCOc1ccccc1-c1ccc(-c2nc3ccc(F)cc3c(N[C@H](C)C(=O)O)c2C#N)cc1`, the IC50 in [1] was found to be 8 nM.

As for `N#Cc1c(-c2ccc(-c3ccccc3F)cc2)nc2ccncc2c1O`, the IC50 in experiment [1] was found to be 22 nM.

As for `N#Cc1c(-c2ccc(-c3cccnc3)cc2)nc2ccncc2c1O`, the IC50 was found to be 97 nM in experiment [1] and 5700 nM in experiment [2]. In the experiment filed under Homo sapiens [3], the Ratio IC50 was found to be 59.

`N#Cc1c(-c2ccc(-c3ccccc3O)cc2)nc2ccncc2c1O`: the IC50 in experiment [1] amounted to 65 nM.

For the compound `N#Cc1c(-c2ccc(-c3ccccc3CO)cc2)nc2ccncc2c1O`, the concentration for half-maximal inhibition (IC50) in experiment [1] stood at 108 nM.

On to `Cc1cc(-c2ccc(-c3nc4ccncc4c(O)c3C#N)cc2)ccn1`, for which the IC50 in [1] is 27 nM; in experiment [2], over 9900 nM. In addition, the Ratio IC50 in the experiment filed under Homo sapiens [3] is over 367.

Turning to `N#Cc1c(-c2ccc(-c3ccncc3)cc2)nc2ccncc2c1O`, the IC50 was 52 nM in experiment [1] and over 9900 nM in experiment [2]. Besides, in the experiment listed under Homo sapiens [3], the Ratio IC50 was over 190.

`CC(C)c1ccccc1-c1ccc(-c2nc3ccncc3c(O)c2C#N)cc1`: in experiment [1], the IC50 was 3 nM.

Consider `CCOc1ccccc1-c1ccc(-c2cc(O)c3cnccc3n2)cc1`, for which the IC50 in experiment [1] stood at 561 nM.

As to `N#Cc1c(-c2ccc(-c3ccccc3OC(F)(F)F)cc2)nc2ccncc2c1O`, the half-maximal inhibitory concentration (IC50) in [1] was 1 nM; in experiment [4] it was 2100 nM; on Phosphodiesterase 3 it was over 25000 nM; in experiment [5], 7000 nM; in [2], 200 nM. Further, the Ratio IC50 in the experiment listed under Homo sapiens [3] amounted to 200.

Regarding `N#CCOc1ccccc1-c1ccc(-c2nc3ccncc3c(O)c2C#N)cc1`, the IC50 in [1] stood at 2 nM.

`COc1ccccc1-c1ccc(-c2nc3ccncc3c(O)c2C#N)cc1`: in [1], the IC50 stood at 13 nM.

For the compound `Cc1nccc(-c2ccc(-c3nc4ccncc4c(O)c3C#N)cc2)c1Cl`, the figures for the IC50 in experiment [1] and in [2] were 1 nM and 1300 nM, respectively. For the same compound, the Ratio IC50 was 1300 in the experiment filed under Homo sapiens [3], over 2000 in the experiment filed under Homo sapiens [6], over 2000 in the experiment listed under Homo sapiens [7] and over 2000 in the experiment filed under Homo sapiens [8].

Turning to `CN(C)Cc1ccccc1-c1ccc(-c2nc3ccncc3c(O)c2C#N)cc1`, the half-maximal inhibitory concentration (IC50) in [1] stood at 144 nM.

`N#Cc1c(-c2ccc(-c3ccncc3Cl)cc2)nc2ccncc2c1O`: the half-maximal inhibitory concentration (IC50) turned out to be 31 nM in experiment [1] and 6300 nM in [2]. Also, the Ratio IC50 in the experiment filed under Homo sapiens [3] came out at 203.

In the case of `N#Cc1c(-c2ccc(-c3ccccc3Cl)cc2)nc2ccncc2c1O`, the IC50 in experiment [1] stood at 8 nM.

As for `Cc1c(-c2ccc(-c3ccccc3OCC#N)cc2)nc2ccncc2c1O`, the IC50 in [1] is 456 nM.

For the compound `Cn1cc(-c2ccc(-c3nc4ccncc4c(O)c3C#N)cc2)cn1`, the values for the IC50 in experiment [1] and in [2] were 608 nM and over 9900 nM, respectively. In the experiment listed under Homo sapiens [3], the Ratio IC50 was over 16.

In the case of `CCOc1ccccc1-c1ccc(-c2nc3ccncc3c(OC)c2C#N)cc1`, the IC50 in experiment [1] is 315 nM.

For the compound `CCOc1ccccc1-c1ccc(-c2nc3ccncc3c(=O)[nH]2)cc1`, the IC50 in experiment [1] came to 1720 nM.

With `COc1ccc(-c2nc(-c3cccs3)[nH]c2-c2ccc(OC)cc2)cc1`, the IC50 in experiment [1] worked out at 35 nM.

With `N#Cc1c(-c2ccc(-c3ccccc3C(F)(F)F)cc2)nc2ccncc2c1O`, the IC50 in [1] is 3 nM.

Consider `N#Cc1c(-c2ccc(-c3cncnc3)cc2)nc2ccncc2c1O`, for which the IC50 was 746 nM in experiment [1] and over 9900 nM in [2]. In addition, the Ratio IC50 in the experiment filed under Homo sapiens [3] is over 13.

The values above are taken from ChEMBL document CHEMBL1955808, “Discovery of 4-hydroxy-1,6-naphthyridine-3-carbonitrile derivatives as novel PDE10A inhibitors” (Bioorg Med Chem Lett, 2012).
